Assay results: US20260224573A1, “CRYSTAL FORM OF COMPOUND, AND PREPARATION METHOD AND USE THEREOF” (FELICAMED BIOTECHNOLOGY CO., LTD., priority 2023, published 2026)
Where two headings read alike, the source gives them in different places.

Key:
[1] = Experimental: A method for testing the density and the tapped density included: (1) a certain mass of to-be-assessed sample was placed into a 5 mL measuring cylinder, and the volume at this moment was recorded. The bulk density was calculated by dividing the mass of the sample by the volume at this moment. (2) The measuring cylinder was slightly tapped 200 times, the final volume was recorded, and the tapped density was calculated by dividing the mass of the sample by the final volume. (3) Three parallel tests were conducted. A method for testing the angle of repose included: (1) a funnel was fixed vertically to a bottom surface, and the material was slowly placed into the funnel. (2) A well-proportioned cone of the material was formed on the bottom surface. The height and bottom surface diameter of the cone were measured. (3) Three parallel tests were conducted.
[2] = Pharmacokinetics of free crystal form A in Beagle dogs; format: in vivo; details: for MRT last: read-out: MRT0-t; for bioavailability: from average AUC0-t after dose correction, read-out: F (oral bioavailability)
Experimental: All the animals in this experiment were randomly divided into 4 groups (3 dogs/sex/group). The animals in the group A, the group B, and the group D were fasted before administration, and the animals in the group C were fasted before the first administration and the last administration. All the animals were fasted for at least 12 h before administration, and food was resumed 4 h after administration. All the animals had free access to water and food during the experiment. The animals in the group A were intravenously injected with the drug at 2 mg/kg, and blood samples were collected from the jugular vein before and 0.033 […], and 24 h after administration. The animals in the group B and the group D received single intragastric administration of the drugs at 2 mg/kg and 20 mg/kg, respectively, and blood samples were collected from the jugular vein before and 0.083 […], and 24 h after administration. […] Blood samples were collected from the jugular vein before the first administration and the seventh administration and 0.083 […], and 24 h after administration. Blood samples were collected from the jugular vein before administration and 0.5 h after administration from the second administration to the sixth administration. The sample collected before the second administration was the sample collected 24 h after the first administration. The blood samples from the animals were collected through the jugular vein, with a blood sample volume of 0.5 mL/time. All collected whole blood samples were placed in centrifuge tubes containing ethylene diamine tetraacetic acid potassium salt (EDTA-K2), and the centrifuge tubes were turned upside down to allow the anticoagulant and blood to be fully mixed. All the samples were placed on wet ice before centrifugation and centrifuged at 1524 g for 10 min to separate plasma. The plasma samples were transferred to new centrifuge tubes and stored at -90° C. to […] until analysis. The drug concentration in the plasma of each Beagle dog was determined by liquid chromatography with tandem mass spectrometry (LC-MS/MS). The obtained plasma concentration data was analyzed by using the pharmacokinetic processing software WinNonlin 8.0 with a non-compartmental model to calculate relevant pharmacokinetic parameters.

[3] = both sexes, Beagle, dog, plasma, po, 2 mg/kg, i.g. 2 mg/kg single, male/female mean
[4] = both sexes, Beagle, dog, plasma, po, 6 mg/kg, i.g. 6 mg/kg once a day, seventh administration, male/female mean
[5] = both sexes, Beagle, dog, plasma, po, 6 mg/kg, i.g. 6 mg/kg, first administration, male/female mean
[6] = both sexes, Beagle, dog, plasma, po, 20 mg/kg, i.g. 20 mg/kg single, male/female mean
[7] = both sexes, Beagle, dog, plasma, po, i.g. 2 mg/kg single, male/female mean
[8] = both sexes, Beagle, dog, plasma, po, i.g. 6 mg/kg once a day, seventh administration, male/female mean
[9] = both sexes, Beagle, dog, plasma, po, i.g. 6 mg/kg, first administration, male/female mean
[10] = both sexes, Beagle, dog, plasma, po, i.g. 20 mg/kg single, male/female mean
[11] = both sexes, beagle, dog, plasma, iv, 2 mg/kg, i.v. 2 mg/kg, male and female, mean
[12] = both sexes, beagle, dog, plasma, iv, i.v. 2 mg/kg, male and female, mean

CC[S@@](=N)(=O)C[C@H]1CC[C@H](N(C)c2ncnc3[nH]ccc23)CC1 [Free crystal form A]
flowability ([1]; conclusion from Carr index and angle of repose): high flowability | Bulk density ([1]; single tests 1 to 3): 0.11 g/mL | Tapped density ([1]; single tests 1 to 3, tapped 200 times): 0.23 g/mL | Average bulk density ([1]; three parallel tests): 0.11 g/mL | Average tapped density ([1]; three parallel tests, tapped 200 times): 0.23 g/mL | AUC(0-t) [2, 3]: 8750 ng·h/mL | MRT last [2, 3]: 5.37 h | AUC(0-t) [2, 4]: 26600 ng·h/mL | MRT last [2, 4]: 5.12 h | AUC(0-t) [2, 5]: 30000 ng·h/mL | MRT last [2, 5]: 5.49 h | AUC(0-t) [2, 6]: 101000 ng·h/mL | MRT last [2, 6]: 5.2 h | bioavailability ([2]; both sexes, Beagle, dog, plasma, po, i.g. 2 mg/kg single): 88% | Cmax [2, 7]: 1350 ng/mL | Tmax [2, 7]: 1.33 h | half-life [2, 7]: 3.89 h | Cmax at 7 days [2, 8]: 4540 ng/mL | Tmax at 7 days [2, 8]: 0.75 h | half-life at 7 days [2, 8]: 4.1 h | bioavailability ([2]; both sexes, Beagle, dog, plasma, po, i.g. 6 mg/kg, first administration): 100% | Cmax [2, 9]: 4710 ng/mL | Tmax [2, 9]: 0.958 h | half-life [2, 9]: 4.2 h | bioavailability ([2]; both sexes, Beagle, dog, plasma, po, i.g. 20 mg/kg single): 101% | Cmax [2, 10]: 13300 ng/mL | Tmax [2, 10]: 0.792 h | half-life [2, 10]: 4.17 h | AUC(0-t) [2, 11]: 9940 ng·h/mL | MRT last [2, 11]: 4.3 h | C0 [2, 12]: 4250 ng/mL | clearance [2, 12]: 3.4 mL/min/kg | half-life [2, 12]: 3.68 h | Vd ([2]; both sexes, beagle, dog, plasma, iv, i.v. 2 mg/kg, male and female, mean, read-out: VdSS): 0.939 L/kg | drug accumulation ([2]; i.g. 6 mg/kg for 7 consecutive days): No significant drug accumulation | male-to-female ratio of AUC0-t ([2]; i.v. 2 mg/kg): 0.748 | male-to-female ratio of C0 ([2]; i.v. 2 mg/kg): 0.758 | clinical observation ([2]; i.v. 2 mg/kg, i.g. 2, 6, 20 mg/kg, before and after administration and blood sampling): no obvious abnormalities were found
